Experimental data reported in patent US4888335A, “3-alkoxy-2-aminopropyl heterocyclic amines and their use as cardiovascular agents” (McNeilab, Inc., priority 1988, dated 1989).
Counter-ions that a name gives are not always drawn.

How the values were obtained:
[1] = test system: Langendorff's isolated heart (coronary flow); assay: Langendorff isolated heart (increase in coronary flow); settings: tested at 30.0 to 0.01 micromolar
Method: In addition to their utility in the treatment of hypertension, the compounds of formula (I) are useful in the treatment of the symptoms of angina pectoris by virtue of their ability to dilate coronary arteries. Their activity was measured using the "Langendorff's isolated heart" preparation. This test has been described in "Pharmacological Experiments on Isolated Preparations", Staff of the Department of Pharmacology, University of Edinbourgh, 2nd Ed., Churchill Livingstone, N.Y., 1970, pp 112-119. The test compounds were administered at concentrations of 30.0, 10.0, 3.0, 1.0, 0.3, 0.1, 0.03 and 0.01 micromolar (10^-6 molar). The minimum concentration EC30) needed to elicit a 30% increase in coronary flow is shown in Table I for compounds of formula (I).

[2] = test system: spontaneously hypertensive rats (mean arterial pressure); assay: Spontaneously Hypertensive Rat (SHR) test, fall in mean arterial pressure; type: in vivo; settings: active if fall >15 mm of Hg
Method: The activity of compounds of formula (I) for the treatment of hypertension was determined using the Spontaneously Hypertensive Rat (SHR) test as described below. Spontaneously Hypertensive Rat Test In this test, the arterial pressure of adult spontaneously hypertensive rats (Charles River) is monitored directly via an aortic cannula. The SH rats are anesthetized with an inhalation anesthetic (ether). The left carotoid artery is isolated and cannulated. The tip of the cannula is advanced to the aorta and the cannula is exteriorized behind the neck at the level of the scapula. Animals are placed in individual cages, allowed to recover from the anesthetic and are kept unrestrained. The arterial cannula is connected to a pressure transducer which is attached to a recorder. The test compounds are administered to at least 3 rats at doses selected in the range of 0.1 to 100 mg/kg of body weight by i.p. or p.o. routes of administration. The arterial pressure and heart rate are monitored for a minimum of 24 hr. A test compound is considered to be active as an antihypertensive agent if the mean arterial pressure (MAP) indicates a fall (δMAP) of >15 mm of Hg. Each animal serves as its own control.

SMILES	Langendorff EC30 (minimum concentration needed to elicit a 30% increase in coronary flow) [1]	SHR δMAP (change in mean arterial pressure) ([2]; 10 mg/kg i.p.)	SHR δMAP (change in mean arterial pressure) ([2]; 30 mg/kg i.p.)	SHR δMAP (change in mean arterial pressure) ([2]; 30 mg/kg p.o.)
CC(C)COCC(CN1Cc2ccccc2Cc2ccccc21)N1CCCC1 (centres unmarked) [Example 1, 5,6-Dihydro-5-[3-(2-methylpropoxy)-2-(1-pyrrolidinyl)-propyl]-11H -dibenz[b,e]azepine]	.013 10^-6 M	-37 mm of Hg	-65 mm of Hg	–
CC(C)COCC(CN1Cc2ccccc2CCc2ccccc21)N1CCCC1 (stereo not drawn) [Example 2b, 5,6,11,12-Tetrahydro-5-beta-[3-(2-methylpropoxy)-2-(1-pyrrolidinyl)propyl]dibenz[b,f]azocine Hydrate (5:1)]	.150 10^-6 M	–	–	-25 mm of Hg
CC(C)(C)COCC(CN1Cc2ccccc2Cc2ccccc21)N1CCCC1.O=C(O)/C=C/C(=O)O (centres unmarked) [Example 3c, 5,6-Dihydro-5-[3-(2,2-dimethylpropoxy)-2-(1-pyrrolidinyl)propyl]-11H-dibenz[b,e]azepine (E)-2-Butenedioate]	.004 10^-6 M	-54 mm of Hg	–	-2 mm of Hg
CC(C)COCC(CN1c2ccccc2CCc2ccccc21)N1CCCC1 (centres unmarked) [Example 4, 10,11-dihydro-5-[3-(2-methylpropoxy)-2-(1-pyrrolidinyl)propyl]-5H-dibenz[b,f]azepine]	.011 10^-6 M	-65 mm of Hg	–	–
CC(C)(C)COCC(CN1Cc2ccccc2Oc2ccccc21)N1CCCC1.O=C(O)/C=C/C(=O)O (centres unmarked) [Example 5b, 10,11-Dihydro-10-[3-(2,2-dimethylpropoxy)-2-(1-pyrrolidinyl)propyl]dibenz[b,f][1,4]oxazepine (E)-2-Butenedioate]	.04 10^-6 M	-70 mm of Hg	–	-20 mm of Hg
CC(C)(C)COCC(CN1c2ccccc2C=Cc2ccccc21)N1CCCC1 (centres unmarked) [Example 6, 5-[3-(2,2 Dimethylpropxy)-2-(1-pyrrolidinyl)propyl]-5H-dibenz[b,f]azepine Hydrochloride]	.001 10^-6 M	-27 mm of Hg	–	–
CC1(COCC(CN2c3ccccc3Oc3ccccc32)N2CCCC2)CCCCC1.Cl (centres unmarked) [Example 7d, 10-[3-[(1-Methylcyclohexyl)methoxy]-2-(1-pyrrolidinyl)-propyl]-10H-phenoxazine Hydrochloride (1:1)]	.012 10^-6 M	–	–	-24 mm of Hg
CC1(COCC(CN2c3ccccc3C=Cc3ccccc32)N2CCCC2)CCCCC1 (centres unmarked) [Example 8, 5-[3-[(1-methylcyclohexyl)methoxy]-2-(1-pyrrolidinyl)propyl]-5H-dibenz[b,f]azepine]	.0037 10^-6 M	–	–	-12 mm of Hg
CC(C)COCC(CN1c2ccccc2Sc2ccccc21)N1CCCC1 (centres unmarked) [Example 9, 10-[3-(2-Methylpropoxy)-2-(1-pyrrolidinyl)propyl]-10H-phenothiazine]	.30 10^-6 M	-22 mm of Hg	–	-19 mm of Hg
C=C(C)COCC(CN1c2ccccc2C=Cc2ccccc21)N1CCCC1 (centres unmarked) [Example 10, 5-[3-(2-methyl-2-propenoxy)-2-(1-pyrrolidinyl)propyl]-5H-dibenz[b,f]azepine]	–	–	–	-25 mm of Hg
